Experimental data from article PMC9199881 (Clinical and Translational Science, 2022).

Experiments:
[1] = tested on: spontaneous canine pemphigus foliaceus; conditions: cited from earlier work
[2] = tested on: cytochrome P450 3A4 (CYP3A4); conditions: enzymatic studies; cited from earlier work
patients with PV and ITP = conditions: rilzabrutinib 400 mg b.i.d.; cited from earlier work
[3] = tested on: rat antibody-mediated Arthus model; conditions: cited from earlier work
other CYP enzymes = conditions: enzymatic studies; cited from earlier work
[4] = tested on: collagen-induced arthritis in rats; conditions: cited from earlier work
healthy subjects [5] = assay: Safety assessment; type: in vivo, human
[6] = tested on: human ether-a-go-go-related gene (hERG) current; conditions: 10 μM; hERG-transfected HEK293 cells; ref unpublished preclinical safety studies; cited from earlier work
[7] = tested on: mouse immune thrombocytopenia model; conditions: cited from earlier work
healthy subjects [8] = assay: Concentration-QTc; type: in vivo, human
[9] = Plasma pharmacokinetics, Part A; type: in vivo, human; conditions: for AUC(0-t) / AUC(0-inf) / Cmax / Tmax / half-life: human, plasma, oral; for AUC(0-t): AUC0–last; for AUC(0-inf): AUC0–∞
healthy subjects [10] = assay: ECG by timepoint analysis and categorical outliers, Part B; type: in vivo, human
healthy subjects [11] = assay: Safety assessment; type: in vivo, human; conditions: Part A
[12] = cited from earlier work
[13] = Plasma pharmacokinetics, Part B; conditions: for AUC(0-inf): AUC0–∞
[14] = Part B, 400 mg rilzabrutinib plus ritonavir
[15] = Part B, rilzabrutinib 400 mg + ritonavir 100 mg, first column of the group
[16] = Part B, rilzabrutinib 400 mg + ritonavir 100 mg, second column of the group
[17] = Part B, linear model with an intercept
[18] = 1200 mg, Mean (SD), rilzabrutinib 1200 mg single dose
[19] = 1200 mg, Median (range), rilzabrutinib 1200 mg single dose
[20] = Mean (SD), rilzabrutinib 100 mg + ritonavir 100 mg b.i.d., rilzabrutinib in plasma
[21] = Median (range), rilzabrutinib 100 mg + ritonavir 100 mg b.i.d., rilzabrutinib in plasma
[22] = rilzabrutinib 100 mg + ritonavir 100 mg vs 100 mg alone
[23] = rilzabrutinib 100 mg + ritonavir 100 mg
[24] = human, in vivo, 400 mg, Mean (SD), 400 mg single dose alone
[25] = human, in vivo, 400 mg, Median (range), 400 mg single dose alone

## CC(C)(/C=C(\C#N)C(=O)N1CCC[C@@H](n2nc(-c3ccc(Oc4ccccc4)cc3F)c3c(N)ncnc32)C1)N1CCN(C2COC2)CC1 [Rilzabrutinib, rilzabrutinib]
[1]
  anti-inflammatory effects: rapid and significant anti‐inflammatory effects
[2]
  interaction with CYP3A4: substrate for and weak inhibitor
Patients with PV and ITP
  prolonged QTcF interval among safety concerns: did not report prolonged QTcF interval
[3]
  anti-inflammatory effects: rapid and significant anti‐inflammatory effects
Other CYP enzymes
  interaction with other CYP enzymes: no significant interaction
[4]
  effect on disease: dose‐dependent reduction and complete reversal of disease
Healthy subjects [5]; Part B
  serious TEAEs or deaths: no serious TEAEs or deaths
Healthy subjects [5]; Part B, 400 mg alone
  Treatment-related TEAE: Abdominal pain, n (%): 3 (9.4) n (%)
  Treatment-related TEAE: Diarrhea, n (%): 9 (28.1) n (%)
  Treatment-related TEAE: Dizziness, n (%): 0 n (%)
  Treatment-related TEAE: Dysgeusia, n (%): 1 (3.1) n (%)
  Treatment-related TEAE: Frequent bowel movements, n (%): 0 n (%)
  Treatment-related TEAE: Gastrointestinal disorders, n (%): 13 (40.6) n (%)
  Treatment-related TEAE: Headache, n (%): 1 (3.1) n (%)
  Treatment-related TEAE: Herpex simplex, n (%): 0 n (%)
  Treatment-related TEAE: Infections and infestations, n (%): 0 n (%)
  Treatment-related TEAE: Lethargy, n (%): 0 n (%)
  Treatment-related TEAE: Nervous system disorders, n (%): 2 (6.3) n (%)
  Treatment-related TEAE: Somnolence, n (%): 0 n (%)
  Treatment-related TEAE: Subjects with ≥1 TEAE, n (%): 14 (43.8) n (%)
  Treatment-related TEAE: Vomiting, n (%): 0 n (%)
  incidence of treatment-related TEAEs: 43.8%
  participants with diarrhea: 28.1%
Healthy subjects [5]; [14]
  incidence of treatment-related TEAEs: 44.1%
  participants with diarrhea: 35.3%
Healthy subjects [5]; Part B, nausea with 400 mg and diarrhea with 400 mg plus 100 mg ritonavir, in two participants
  moderate (grade 2) rilzabrutinib related TEAEs: two moderate (grade 2) rilzabrutinib related TEAEs
Healthy subjects [5]; [15]
  Treatment-related TEAE: Abdominal pain, n (%): 0 n (%)
  Treatment-related TEAE: Diarrhea, n (%): 12 (35.3) n (%)
  Treatment-related TEAE: Dizziness, n (%): 0 n (%)
  Treatment-related TEAE: Dysgeusia, n (%): 2 (5.9) n (%)
  Treatment-related TEAE: Frequent bowel movements, n (%): 1 (2.9) n (%)
  Treatment-related TEAE: Gastrointestinal disorders, n (%): 14 (41.2) n (%)
  Treatment-related TEAE: Headache, n (%): 0 n (%)
  Treatment-related TEAE: Herpex simplex, n (%): 1 (2.9) n (%)
  Treatment-related TEAE: Infections and infestations, n (%): 1 (2.9) n (%)
  Treatment-related TEAE: Lethargy, n (%): 0 n (%)
  Treatment-related TEAE: Nervous system disorders, n (%): 3 (8.8) n (%)
  Treatment-related TEAE: Somnolence, n (%): 2 (5.9) n (%)
  Treatment-related TEAE: Vomiting, n (%): 0 n (%)
Healthy subjects [5]; [16]
  Treatment-related TEAE: Abdominal pain, n (%) [second column of the group]: 0 n (%)
  Treatment-related TEAE: Diarrhea, n (%) [second column of the group]: 12 n (%)
  Treatment-related TEAE: Dizziness, n (%) [second column of the group]: 0 n (%)
  Treatment-related TEAE: Dysgeusia, n (%) [second column of the group]: 2 n (%)
  Treatment-related TEAE: Headache, n (%) [second column of the group]: 0 n (%)
  Treatment-related TEAE: Herpex simplex, n (%) [second column of the group]: 1 n (%)
  Treatment-related TEAE: Lethargy, n (%) [second column of the group]: 0 n (%)
  Treatment-related TEAE: Nausea, n (%) [second column of the group]: 4 n (%)
  Treatment-related TEAE: Somnolence, n (%) [second column of the group]: 2 n (%)
  Treatment-related TEAE: Vomiting, n (%) [second column of the group]: 0 n (%)
Healthy subjects [5]; at the studied doses
  changes in clinical chemistry: No clinically meaningful changes
  safety profile: acceptable safety profile
[6]
  signal on hERG current: no signal
[7]
  anti-inflammatory effects: rapid and significant anti‐inflammatory effects
Healthy subjects [8]; Part B
  concentration–QTc relationship (slope): -0.01 ms/ng/mL
Healthy subjects [8]; Part B, 400 mg alone
  predicted ΔΔQTcF at the observed geometric mean Cmax: -3.4 ms
Healthy subjects [8]; [17]
  estimated population slope of the C-QTc relationship: 0.01 ms per ng/mL
  intercept of the C-QTc relationship: -2.0 ms
Healthy subjects [8]; Part B, rilzabrutinib 400 mg with ritonavir
  predicted ΔΔQTcF at the observed geometric mean Cmax: -9.9 ms
Healthy subjects [8]; both therapeutic and supratherapeutic dose groups
  predicted ΔΔQTcF interval at Cmax: < 0 ms
Healthy subjects [8]; therapeutic and supratherapeutic concentrations
  predicted upper bound 90% CI of QTc effect: < 10 ms
[9]; [18]
  AUC(0-t): 2470 ng·h/mL
  AUC(0-inf): 2470 ng·h/mL
  Cmax: 569 ng/mL
  Tmax: 2.9 h
[9]; [19]
  AUC(0-t): 551 ng·h/mL
  AUC(0-inf): 553 ng·h/mL
  Cmax: 136 ng/mL
  Tmax: ~3 h
[9]; 1200 mg, t 1/2, Mean (SD), rilzabrutinib 1200 mg single dose
  half-life: 3.1 h
[9]; 1200 mg, t 1/2, Median (range), rilzabrutinib 1200 mg single dose
  half-life: 3.2 h
[9]; [20]
  AUC(0-t): 1080 ng·h/mL
  AUC(0-inf): 1100 ng·h/mL
  Cmax: 223 ng/mL
  Tmax: 2.3 h
[9]; [21]
  AUC(0-t): 771 ng·h/mL
  AUC(0-inf): 778 ng·h/mL
  Cmax: 157 ng/mL
  Tmax: 2.5 h
[9]; t 1/2, Mean (SD), rilzabrutinib 100 mg + ritonavir 100 mg b.i.d., rilzabrutinib in plasma
  half-life: 4 h
[9]; t 1/2, Median (range), rilzabrutinib 100 mg + ritonavir 100 mg b.i.d., rilzabrutinib in plasma
  half-life: 4 h
[9]; [22]
  increase in rilzabrutinib AUC0–∞ with ritonavir over rilzabrutinib alone: 17 fold
  increase in rilzabrutinib Cmax with ritonavir over rilzabrutinib alone: 7 fold
[9]; rilzabrutinib 100 mg single dose
  Tmax, Median (range): 1.0 (0.5–2.0) h
[9]; rilzabrutinib 1200 mg single dose
  Tmax, Median (range): 3.0 (1.5–4.0) h
Healthy subjects [10]; Part B
  effect on HR: no effect on HR
Healthy subjects [10]; Part B, at the studied doses
  effect on cardiac conduction (PR and QRS intervals): no clinically relevant effect
Healthy subjects [10]; Part B, following 400 mg rilzabrutinib
  treatment-emergent T-wave or U-wave morphology changes: one subject with a flat T wave at two timepoints
Healthy subjects [10]; therapeutic and supratherapeutic (with ritonavir) exposures
  effects on ECG parameters, including the QTc interval: no clinically relevant effects
Healthy subjects [11]
  serious TEAEs, deaths, or TEAEs leading to study drug interruption/discontinuation: no serious TEAEs, deaths, or TEAEs leading to study drug interruption/discontinuation
  severity of rilzabrutinib-related TEAEs: mostly mild (grade 1)
Healthy subjects [11]; 100 mg plus ritonavir 100 mg, one event in one participant
  participants with TEAEs deemed related to rilzabrutinib treatment: 9.1%
Healthy subjects [11]; 1200 mg, five events in three participants
  participants with TEAEs deemed related to rilzabrutinib treatment (GI-related): 75%
Healthy subjects [11]; following 100 mg rilzabrutinib
  rilzabrutinib-related TEAEs: no rilzabrutinib‐related TEAEs reported
Healthy subjects [11]; rilzabrutinib 100 mg
  Treatment-related TEAE: Diarrhea, n (%): 0 n (%)
  Treatment-related TEAE: Dizziness, n (%): 0 n (%)
  Treatment-related TEAE: Gastrointestinal disorders, n (%): 0 n (%)
  Treatment-related TEAE: Nausea, n (%): 0 n (%)
  Treatment-related TEAE: Nervous system disorders, n (%): 1 (8.3) n (%)
  Treatment-related TEAE: Orthostatic hypotension, n (%): 0 n (%)
  Treatment-related TEAE: Subjects with ≥1 TEAE, n (%): 0 n (%)
  Treatment-related TEAE: Vascular disorders, n (%): 0 n (%)
  Treatment-related TEAE: Vomiting, n (%): 0 n (%)
Healthy subjects [11]; [23]
  Treatment-related TEAE: Diarrhea, n (%): 0 n (%)
  Treatment-related TEAE: Dizziness, n (%): 1 (9.1) n (%)
  Treatment-related TEAE: Gastrointestinal disorders, n (%): 0 n (%)
  Treatment-related TEAE: Nausea, n (%): 0 n (%)
  Treatment-related TEAE: Orthostatic hypotension, n (%): 0 n (%)
  Treatment-related TEAE: Subjects with ≥1 TEAE, n (%): 1 (9.1) n (%)
  Treatment-related TEAE: Vascular disorders, n (%): 0 n (%)
  Treatment-related TEAE: Vomiting, n (%): 0 n (%)
Healthy subjects [11]; rilzabrutinib 1200 mg
  Treatment-related TEAE: Diarrhea, n (%): 2 (50.0) n (%)
  Treatment-related TEAE: Dizziness, n (%): 1 (25.0) n (%)
  Treatment-related TEAE: Gastrointestinal disorders, n (%): 3 (75.0) n (%)
  Treatment-related TEAE: Nausea, n (%): 2 (50.0) n (%)
  Treatment-related TEAE: Nervous system disorders, n (%): 1 (25.0) n (%)
  Treatment-related TEAE: Orthostatic hypotension, n (%): 1 (25.0) n (%)
  Treatment-related TEAE: Subjects with ≥1 TEAE, n (%): 3 (75.0) n (%)
  Treatment-related TEAE: Vascular disorders, n (%): 1 (25.0) n (%)
  Treatment-related TEAE: Vomiting, n (%): 1 (25.0) n (%)
Healthy subjects [11]; single dose of 100 mg
  tolerability: well tolerated
[12]; 400 mg b.i.d.
  accumulation after chronic multiple dosing: minimal accumulation
[12]; healthy volunteers
  delay of absorption by a moderate fat meal: ~ 1 h
[12]; single dose 50–1200 mg, healthy volunteers
  median time to maximum plasma concentration [Tmax]: 0.5 to 2.5 h
[12]; single dose, healthy volunteers
  mean half-life (t 1/2): 1.4 to 3.9 h
[13]; 400 mg single dose alone
  Tmax, Median (range): 2.1 (0.6–4.1) h
[13]; human, in vivo, 400 mg, AUC0–last, Mean (SD), 400 mg single dose alone
  AUC(0-t): 455 ng·h/mL
[13]; [24]
  AUC(0-inf): 454 ng·h/mL
  Cmax: 144 ng/mL
  Tmax: 2.1 h
[13]; [25]
  AUC(0-inf): 312 ng·h/mL
  Cmax: 102 ng/mL
  Tmax: ~2.1 h
[13]; human, in vivo, 400 mg, t 1/2, Mean (SD), 400 mg single dose alone
  half-life: 3.9 h
[13]; human, in vivo, 400 mg, t 1/2, Median (range), 400 mg single dose alone
  half-life: 3.1 h
[13]; rilzabrutinib 400 mg + ritonavir 100 mg BID vs 400 mg alone
  increase in rilzabrutinib Cmax with ritonavir: 5 fold
